These results are taken from US20160377571A1, “BIOSENSOR” (University of Leeds, priority 2007, published 2016).

The nature of series [1]: AC voltammetry (capacitance-potential scans) of DOPC monolayer on hanging mercury drop electrode (HMDE) with analyte in electrolyte. The method, then: The HMDE was based on using a capillary with a diameter of 0.1 mm so as to provide a surface area for the mercury drop about the same as the surface area of the mercury in the electrode in accordance with the invention.
Experiments were performed in 0.1M Kcl.

The conditions of series [2]: for response of the electrode of the invention to the test compound (depression of capacitance peaks): 0.5 μmol dm^−3 in 0.1M KCl.
Experimental: The HMDE and the electrode of the invention were compared side-by-side in a static cell configuration. All experiments were carried out in 0.1 M potassium chloride solution. Measurements were taken at 75 Hz between −0.4 to −1.15 V with 4.95 mV rms at a scan rate of 5 mV
This Example compares a HMDE electrode with an electrode as produced in accordance with Example 3, both coated with a monolayer film of 1,2-dioleoyl-sn-glycero-3-phosphocholine (DOPC), new layers of which were deposited between consecutive scans. Experiments were performed in 0.1M Kcl. A negative going ‘forward’ potential scan was performed between −0.4 V and −1.15 V, and then followed immediately by a positive going ‘reverse’ scan from −1.15 V to −0.4 V with 4.95 mV rms at a scan rate of 5 mVs^−1.
Setting [3] is: Pt/Hg electrode, DOPC monolayer, compared with HMDE.

For the compound `NC(=O)c1cc[n+](COC[n+]2ccccc2C=NO)cc1` [H16], the “response of the HMDE to the test compound” value in series [1] (5 μmol dm^−3) is given as “large response”. For the same compound, the “response of the electrode of the invention to the test compound (depression of capacitance peaks)” value in series [2] (setting [3]) is on record as “far greater response”. Besides, in series [2] (5 μmol dm^−3, Pt/Hg electrode, DOPC monolayer, compared with HMDE), the “response of the electrode of the invention to the test compound” value is “slightly larger response”.
For the compound `CN(C)CCCN1c2ccccc2Sc2ccc(Cl)cc21` [chlorpromazine], in series [2] (assuming a density for the solution of 1 g per ml), the “sensitivity converted to ppb” value was “approximately 18 ppb”.
For the compound `CC(CN1c2ccccc2Sc2ccccc21)N(C)C` (stereo not drawn) [promethazine], the “response of the HMDE to the test compound” value in series [1] (0.5 μmol dm^−3 in 0.1M KCl) is recorded as “show response”. Besides, the “response of the electrode of the invention to the test compound (depression of capacitance peaks)” value in series [2] (setting [3]) was “stronger response (greater depression of the peaks)”.
